Results from patent publication US10226471B2, “Modified-release dosage forms of 5-HT2C agonists useful for weight management” (Arena Pharmaceuticals, Inc., priority 2010, dated 2019).

Assay: Dynamic moisture-sorption (DMS)
Format: physicochemical
Conditions: for hygroscopicity by DMS: isotherm 25° C.
Method: Dynamic moisture-sorption (DMS) studies were conducted using a dynamic moisture-sorption analyzer, VTI Corporation, SGA-100, equipment #0228. Samples were prepared for DMS analysis by placing 5 mg to 20 mg of a sample in a tared sample holder. The sample was placed on the hang-down wire of the VTI balance. A drying step was run, typically at 40° C. and 0.5-1% RH for 1-2 h. The isotherm temperature is 25° C. Defined % RH holds typically ranged from 10% RH to 90% RH or 95% RH, with intervals of 10 to 20% RH. A % weight change smaller than 0.010% over a specified number of minutes (typically 10-20), or up to 2 h, whichever occurs first, is required before continuing to the next % RH hold. The water content of the sample equilibrated as described above was determined at each % RH hold.

[1] = out to and including the 90% RH hold at 25° C.

Structure (SMILES) | hygroscopicity by DMS | hygroscopicity by DMS (listed as Compound 1 Hydrochloride Salt Hemihydrate, Form III) | water adsorbed in DMS [1] | DMS weight gain at 90% RH [1] | DMS weight gain at 90% RH (out to and including the 90% RH hold at 25° C., Form I)
C[C@H]1CNCCc2ccc(Cl)cc21.C[C@H]1CNCCc2ccc(Cl)cc21.Cl.Cl.O | substantially non-hygroscopic | FIG. 4: non-hygroscopic | less than 0.5 wt % | – | –
C[C@H]1CNCCc2ccc(Cl)cc21.C[C@H]1CNCCc2ccc(Cl)cc21.O=S(=O)(O)c1cccc2c(S(=O)(=O)O)cccc12 [Compound 1 heminapadisilate salt] | non-hygroscopic | – | – | about 0.68% | FIG. 31: ~0.68% weight gain at about 90% RH
